Measured values published in patent US5565494A, “Antitumor compositions and methods of treatment” (Eli Lilly and Company, priority 1995, dated 1996).
Where “and” joins values, the source holds several entries; their conditions need not be identical. Identical values can stand only once.

Legend:
Type in all cases: in vivo
[1] = system: 6C3HED lymphosarcoma (Gardner lymphosarcoma, GLS); test: Antitumor activity in C3H mice bearing 6C3HED lymphosarcoma allograft, oral administration; conditions: for Percent Inhibition of tumor growth: tumor measured five days after treatment ended
Text: A third tumor model employed C3H mice bearing the widely used allograft 6C3HED lymphosarcoma, also known as the Gardner lymphosarcoma (GLS). The 6C3HED lymphosarcoma was obtained from the Division of Cancer Treatment, National Cancer Institute, Tumor Bank, maintained at E.G. and G. Mason Research (Worcester, Mass.).
(§1) First passage tumors were stored in liquid nitrogen, using standard techniques. The transplanted tumor was reestablished from the Tumor Bank every six months or as needed. The tumor was maintained by serial passage twice weekly in the host mice.
(§2) In the procedures utilized here, the tumor was removed from passage animals and minced into 1- to 3-mm cubic fragments using sterile techniques. Tumor pieces were checked for sterility using both Antibiotic Medium 1 and Brain Heart Infusion (Difco, Detroit, Mich.). The xenograft tumor pieces were implanted into the recipient CD1 Nu/Nu mice subcutaneously in an axillary site by trochar. The allograft 6C3HED tumor pieces were implanted into the recipient C3H mice in an analogous fashion.
Drug therapy on the appropriate schedule was initiated seven days after tumor implantation. […] The total dosage volume for each administration was 0.5 ml. All animals were weighed at the beginning and end of administration of the subject compounds. Food and water were provided ad libitum.
(§3) Each control group and each dosage level of the treated groups consisted of 9 or 10 mice selected at random from the pool of implanted animals. The formulations were administered orally by gavage with the use of an 18-gauge needle. Compounds were dosed daily for 10 days for the studies using the human tumor xenografts and 8 days for the studies using the allograft.
The tumor was measured five days after treatment ended with two dimensional measurements (width and length) of the tumor taken using digital electronic calipers interfaced to a microcomputer. […] Tumor weights were calculated from these measurements using the following formula: [formula]

[2] = system: VRC5 human colon adenocarcinoma; test: Antitumor activity in mice bearing VRC5 human colon adenocarcinoma xenograft, oral administration; conditions: for Toxic/Total (mice which died relative to total in group): VRC5, oral gavage daily for 10 days; for Percent Inhibition of tumor growth: po
Text: (§4) Two of the tumor models used for showing the anti-neoplastic activity of the sulfonylureas of this invention were the human colon xenografts, HXGC3 and VRC5. J. A. Houghton and D. M. Taylor, British Journal of Cancer, 37:213-223 (1978). These tumors were obtained from St. Jude's Children's Research Hospital and have been widely used as human tumor models.
as §1, §2
(§5) Drug therapy on the appropriate schedule was initiated seven days after tumor implantation. The compound being tested was mixed with 2.5% Emulphor EL620 from GAF Corporation (1:40 dilution in 0.9% saline). The total dosage volume for each administration was 0.5 ml. All animals were weighed at the beginning and end of administration of the subject compounds. Food and water were provided ad libitum.
as §3
(§6) The tumor was measured five days after treatment ended with two dimensional measurements (width and length) of the tumor taken using digital electronic calipers interfaced to a microcomputer. J. F. Worzalla, et Investigational New Drugs, 8:241-251 (1990). Tumor weights were calculated from these measurements using the following formula: [formula] At least one control group of an equal number of mice was treated with the same volume of 2.5% Emulphor only. The percent inhibition is determined by subtracting the ratio of the mean tumor size of the test group relative to the control group from one and multiplying the result by 100.
(§7) The results of several experiments in mice bearing the HXGC3 and VRC5 human colon adenocarcinomas and the 6C3HED lymphosarcoma when the Formula I compounds were administered orally are provided in Table I. In the table, Column 1 refers to the example number of the compound tested; Column 2 describes the particular human tumor xenograft or mouse allograft being studied; Column 3 gives the dosage level of the compound of Formula I in milligrams per kilogram of body weight; Column 4 describes the percent inhibition of tumor growth; and Column 5 tallies the number of mice which died during the course of the experiment relative to the total number of animals in the group.

[3] = system: HXGC3 human colon adenocarcinoma; test: Antitumor activity in mice bearing HXGC3 human colon adenocarcinoma xenograft, oral administration; conditions: for Toxic/Total (mice which died relative to total in group): HXGC3, oral gavage daily for 10 days; for Percent Inhibition of tumor growth: po
Text: as §4, §1, §2, §5, §3, §6, §7

[4] = 6C3HED, 150 mg/kg, oral gavage daily for 8 days
[5] = 6C3HED, 300 mg/kg, oral gavage daily for 8 days
[6] = Mus musculus, 6C3HED, po, read-out: Percent Inhibition of tumor growth
[7] = 6C3HED, 600 mg/kg, oral gavage daily for 8 days

SMILES: O=C(Nc1ccc(Cl)cc1)NS(=O)(=O)c1ccc(N2CCCC2)cc1 [Example 7, N-[[(4-chlorophenyl)amino]-carbonyl]-4-(1-pyrrolidinyl) benzenesulfonamide]
- Toxic/Total (mice which died relative to total in group) [1, 4]: 0/10
- Toxic/Total (mice which died relative to total in group) [1, 5]: 0/10
- inhibition in vivo at 150 mg/kg [1, 6]: 44%
- inhibition in vivo at 300 mg/kg [1, 6]: 48%

SMILES: Nc1ccc(S(=O)(=O)NC(=O)Nc2ccc(Cl)c(Cl)c2)cc1 [Example 8, N-[[(3,4-dichlorophenyl)amino]-carbonyl]-4-(amino) benzenesulfonamide]
- inhibition in vivo at 194 mg/kg [1, 6]: 34%
- inhibition in vivo at 388 mg/kg [1, 6]: 29%
- inhibition in vivo at 775 mg/kg [1, 6]: 100%
- Toxic/Total (mice which died relative to total in group) ([1]; mouse, in vivo): 1/10 and 0/10

SMILES: CCNc1ccc(S(=O)(=O)NC(=O)Nc2ccc(Cl)cc2)cc1 [Example 5, N-[[(4-chlorophenyl)amino]carbonyl]-4-(ethylamino)benzenesulfonamide]
- Toxic/Total (mice which died relative to total in group) [1, 5]: 0/10
- inhibition in vivo at 300 mg/kg [1, 6]: 74%

SMILES: CN(C)c1ccc(S(=O)(=O)NC(=O)Nc2ccc(Cl)cc2)cc1 [Example 1, N-[[(4-chlorophenyl)amino]carbonyl]-4-(dimethylamino)benzenesulfonamide]
- Toxic/Total (mice which died relative to total in group) ([1]; 6C3HED, 37.5 mg/kg, oral gavage daily for 8 days): 0/10
- Toxic/Total (mice which died relative to total in group) ([1]; 6C3HED, 75 mg/kg, oral gavage daily for 8 days): 0/10
- Toxic/Total (mice which died relative to total in group) [1, 4]: 0/10
- Toxic/Total (mice which died relative to total in group) [1, 5]: 0/10
- Toxic/Total (mice which died relative to total in group) [1, 7]: 10/10
- Percent Inhibition of tumor growth [1, 7]: Toxic
- inhibition in vivo at 37.5 mg/kg [1, 6]: 80%
- inhibition in vivo at 75 mg/kg [1, 6]: 99%
- inhibition in vivo at 150 mg/kg [1, 6]: 100%
- inhibition in vivo at 300 mg/kg [1, 6]: 100%

SMILES: CN(C)c1ccc(S(=O)(=O)NC(=O)Nc2ccc(Cl)c(Cl)c2)cc1 [Example 2, N-[[(3,4-dichlorophenyl)amino]carbonyl]-4-(dimethylamino)benzenesulfonamide]
- Toxic/Total (mice which died relative to total in group) ([2]; 150 mg/kg): 0/10
- Toxic/Total (mice which died relative to total in group) ([2]; 300 mg/kg): 0/10
- Toxic/Total (mice which died relative to total in group) ([2]; 600 mg/kg): 1/10
- Toxic/Total (mice which died relative to total in group) ([2]; 1200 mg/kg): 0/10
- Percent Inhibition of tumor growth ([2]; 150 mg/kg): 100%
- Percent Inhibition of tumor growth ([2]; 300 mg/kg): 100%
- Percent Inhibition of tumor growth ([2]; 600 mg/kg): 100%
- Percent Inhibition of tumor growth ([2]; 1200 mg/kg): 100%
- Toxic/Total (mice which died relative to total in group) ([3]; 150 mg/kg): 0/10
- Toxic/Total (mice which died relative to total in group) ([3]; 300 mg/kg): 0/10
- Toxic/Total (mice which died relative to total in group) ([3]; 600 mg/kg): 1/10
- Toxic/Total (mice which died relative to total in group) ([3]; 1200 mg/kg): 1/10
- Percent Inhibition of tumor growth ([3]; 150 mg/kg): 100%
- Percent Inhibition of tumor growth ([3]; 300 mg/kg): 100%
- Percent Inhibition of tumor growth ([3]; 600 mg/kg): 100%
- Percent Inhibition of tumor growth ([3]; 1200 mg/kg): 100%
- Toxic/Total (mice which died relative to total in group) ([1]; 6C3HED, 20 mg/kg, oral gavage daily for 8 days): 0/10
- Toxic/Total (mice which died relative to total in group) ([1]; 6C3HED, 40 mg/kg, oral gavage daily for 8 days): 0/10
- Toxic/Total (mice which died relative to total in group) ([1]; 6C3HED, 80 mg/kg, oral gavage daily for 8 days): 0/10
- Toxic/Total (mice which died relative to total in group) ([1]; 6C3HED, 160 mg/kg, oral gavage daily for 8 days): 0/10
- inhibition in vivo at 20 mg/kg [1, 6]: 35%
- inhibition in vivo at 40 mg/kg [1, 6]: 51%
- inhibition in vivo at 80 mg/kg [1, 6]: 89%
- inhibition in vivo at 160 mg/kg [1, 6]: 97%

SMILES: CCN(CC)c1ccc(S(=O)(=O)NC(=O)Nc2ccc(Cl)c(Cl)c2)cc1 [Example 12]
- Toxic/Total (mice which died relative to total in group) [1, 4]: 0/10
- Toxic/Total (mice which died relative to total in group) [1, 5]: 0/10
- inhibition in vivo at 150 mg/kg [1, 6]: 54%
- inhibition in vivo at 300 mg/kg [1, 6]: 70%

SMILES: CN(C)c1cccc(S(=O)(=O)NC(=O)Nc2ccc(Cl)cc2)c1 [Example 4, N-[[(4-chlorophenyl)amino]carbonyl]-3-(dimethylamino)benzenesulfonamide]
- Toxic/Total (mice which died relative to total in group) [1, 4]: 0/10
- Toxic/Total (mice which died relative to total in group) [1, 5]: 0/10
- inhibition in vivo at 150 mg/kg [1, 6]: 73%
- inhibition in vivo at 300 mg/kg [1, 6]: 95%

SMILES: CC(C)Nc1ccc(S(=O)(=O)NC(=O)Nc2ccc(Cl)c(Cl)c2)cc1 [Example 11]
- Toxic/Total (mice which died relative to total in group) [1, 4]: 0/10
- Percent Inhibition of tumor growth [1, 4]: 71%
- Toxic/Total (mice which died relative to total in group) [1, 5]: 1/10
- Percent Inhibition of tumor growth [1, 5]: 96%

SMILES: CNc1ccc(S(=O)(=O)NC(=O)Nc2ccc(Cl)c(Cl)c2)cc1 [Example 10]
- inhibition in vivo at 300 mg/kg [1, 6]: 100%
- inhibition in vivo at 600 mg/kg [1, 6]: 100%
- Toxic/Total (mice which died relative to total in group) ([1]; mouse, in vivo): 2/10 and 0/10

SMILES: CNc1ccc(S(=O)(=O)NC(=O)Nc2ccc(Cl)cc2)cc1 [Example 9]
- Toxic/Total (mice which died relative to total in group) [1, 5]: 0/10
- Percent Inhibition of tumor growth [1, 5]: 100%
- Toxic/Total (mice which died relative to total in group) [1, 7]: 0/10
- Percent Inhibition of tumor growth [1, 7]: 100%

SMILES: O=C(Nc1ccc(Cl)cc1)NS(=O)(=O)c1ccc(N2CCOCC2)cc1 [Example 6, N-[[(4-chlorophenyl)amino]-carbonyl]-4-(4-morpholinyl) benzenesulfonamide]
- Toxic/Total (mice which died relative to total in group) [1, 4]: 0/10
- Toxic/Total (mice which died relative to total in group) [1, 5]: 0/10
- inhibition in vivo at 150 mg/kg [1, 6]: 17%
- inhibition in vivo at 300 mg/kg [1, 6]: 38%
